Laboratory results taken from BindingDB's records for PubMed 33486199 (Queen Mary University of London, 2021).

Target: T1, fMet-Leu-Phe receptor (Homo sapiens, UniProt P21462)
T1 sequence (P21462 whole entry): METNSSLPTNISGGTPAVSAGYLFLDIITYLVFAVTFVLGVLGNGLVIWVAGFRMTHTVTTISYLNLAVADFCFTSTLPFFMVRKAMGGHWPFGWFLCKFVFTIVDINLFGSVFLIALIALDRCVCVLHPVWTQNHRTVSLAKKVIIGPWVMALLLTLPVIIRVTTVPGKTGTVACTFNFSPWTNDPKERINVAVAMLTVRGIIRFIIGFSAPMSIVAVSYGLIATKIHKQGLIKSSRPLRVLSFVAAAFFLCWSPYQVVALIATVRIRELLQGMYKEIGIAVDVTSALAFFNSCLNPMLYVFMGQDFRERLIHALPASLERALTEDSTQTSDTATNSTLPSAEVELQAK
Experiment: Agonist activity at human FPR1 expressed in CHO cells assessed as cAMP level incubated for 1.5 hr by HTRF assay

| Structure (SMILES) | EC50 |
| --- | --- |
| O=C(Nc1ccc(Cl)cc1F)N[C@@H]1CCN(c2ccc(-c3cnn(C(F)F)c3)c(F)c2F)C1=O [US10676431, Example 79] | > 10 µM |
| CP(C)(=O)c1ccccc1-c1ccc(N2CC(CO)[C@@H](NC(=O)Nc3ccc(Cl)cc3F)C2=O)c(F)c1F (some centres not stated) [US10676431, Example 125] | > 10 µM |
